Source: patent publication US6384066B1, “Sulphonyltriazol derivatives and their use for combating micro-organisms” (priority 1998, dated 2002)

Assays:
Phytophthora infestans = assay type: in vivo; conditions: tomato plants, protective spray, application rate 50 g/ha, evaluation 3 days after inoculation; 100% = no infection

Row | SMILES | melting point | Efficacy in % (Phytophthora infestans)
1 | Cc1noc(C)c1S(=O)(=O)n1nc(Cl)nc1-c1ccccc1 [Example 1] | 70 to 74 °C | 
2 | Cc1noc(C)c1S(=O)(=O)n1nc(Cl)nc1-c1ccccc1 [drawing 94] |  | 97%
